Experiments:
Experiment in all cases: Effect of metallic ions and chemical compounds on chitinase activity
Assay type in all cases: biochemical, P. orarium
Conditions in all cases: relative to standard MAT buffer control (100%); ions and EDTA 1 mM, Tween 20 0.5% v/v, SDS 0.5% w/v; 2 μM enzyme
[1] = test system: recombinant chitinase C5
Procedure: (§1) The addition of different co-factors and chemicals was assessed to determine whether they stimulate or inhibit enzymatic activity and the effect was evaluated relative to the control in standard MAT buffer (33 mM 2-(N-morpholino) ethanesulfonic acid (MES), 33 mM sodium acetate, 33 mM Tris(hydroxymethyl) aminomethane (TRIS); pH 8.0). The selection of tested compounds at the respective concentrations was based on findings for different chitinases so far [Zarei et al., J. Microbiol., 2011. 42: p. 1017-1029.]. […] All enzymes were inhibited the strongest by Zn2+ and Cu2+ and SDS (0.5% w/v) resulting in a relative loss of activity of up to 99%. […] Inhibitory effects of Ni2+ and imidazole on enzymatic activity also underline the requirement for dialysis of the elution fractions after purification in order to remove residual Ni2+ and imidazole from the elution buffer.
(§2) Enzyme samples were incubated at different temperature (10-60° C., 10° C. increment) and pH (4-11, increment 1) using different buffer systems (Acetate, Tris-HCl, MES, total molar concentration 100 mM), as well as NaCl content (0, 1. 2.5, 5, 10 and 20% w/v) to determine optimum reaction conditions. All experiments were carried out at 1.0 ml scale using 2 μM of the respective enzymes and a 5% (wv) suspension of chitin powder extracted from shrimp shells (˜400.000 g/mol; Carl, Roth) in 100 mM MAT buffer. For the determination of the substrate specificity, chitin powder (5% w/v), glycol chitin (10% v/v), colloidal chitin (5% w/v), chitosan [DA 15-25%, medium molecular weight, Sigma-Aldrich] (5% w/v) and microcrystalline cellulose powder (Sigma Aldrich) (5% w/v) were investigated, respectively. The effect of several potential co-factors on activity was elucidated at a concentration of 1 mM. Additionally, the effect of detergents [SDS 0.5% (w/v), Tween-20 and Triton X-100 both at 0.5% (v/v)] and chemicals (Imidazole 100 mM, EDTA 1 mM) on enzymatic activity was assessed. Samples were incubated in a thermomixer for 16 h at 900 rpm. After incubation, samples were analyzed using the enzyme assay. Thermostability was assessed after incubation of recombinant chitinases at 60° C. for different durations followed by the quantification of residual enzyme activity under standard assay conditions.

[2] = test system: recombinant chitinase C2
Procedure: as §1, §2

[3] = test system: recombinant chitinase C3
Procedure: as §1, §2

[4] = test system: recombinant chitinase C1
Procedure: as §1, §2

[5] = test system: recombinant chitinase C4
Procedure: as §1, §2

## [Ca+2] [Ca^2+]
[1]
  [%] Residual activity C5: 21.3 ± 0.1%
[2]
  [%] Residual activity C2: 35.6 ± 1.7%
[3]
  [%] Residual activity C3: 94.7 ± 2.0%
[4]
  [%] Residual activity C1: 92.7 ± 2.1%
[5]
  [%] Residual activity C4: 3.8 ± 0.4%

## [Cu+2] [Cu^2+]
[1]
  [%] Residual activity C5: 3.9 ± 2.9%
[2]
  [%] Residual activity C2: 12.3 ± 0.9%
[3]
  [%] Residual activity C3: 16.9 ± 0.2%
[4]
  [%] Residual activity C1: 11.1 ± 3.7%
[5]
  [%] Residual activity C4: 14.8 ± 3.4%

## O=C(O)CN(CCN(CC(=O)O)CC(=O)O)CC(=O)O [EDTA]
[1]
  [%] Residual activity C5: 28.0 ± 0.9%
[2]
  [%] Residual activity C2: 20.4 ± 1.6%
[3]
  [%] Residual activity C3: 80.8 ± 4.8%
[4]
  [%] Residual activity C1: 68.9 ± 0.7%
[5]
  [%] Residual activity C4: 73.9 ± 4.1%

## [K+] [K^2+]
[1]
  [%] Residual activity C5: 28.6 ± 0.4%
[2]
  [%] Residual activity C2: 44.8 ± 2.3%
[3]
  [%] Residual activity C3: 72.6 ± 1.7%
[4]
  [%] Residual activity C1: 100.1 ± 2.8%
[5]
  [%] Residual activity C4: 3.7 ± 0.2%

## [Mg+2] [Mg^2+]
[1]
  [%] Residual activity C5: 25.8 ± 0.9%
[2]
  [%] Residual activity C2: 38.7 ± 1.7%
[3]
  [%] Residual activity C3: 68.8 ± 2.8%
[4]
  [%] Residual activity C1: 99.8 ± 3.1%
[5]
  [%] Residual activity C4: 3.3 ± 0.2%

## [Ni+2] [Ni^2+]
[1]
  [%] Residual activity C5: 5.6 ± 0.3%
[2]
  [%] Residual activity C2: 23.0 ± 0.7%
[3]
  [%] Residual activity C3: 64.8 ± 1.2%
[4]
  [%] Residual activity C1: 76.6 ± 5.1%
[5]
  [%] Residual activity C4: 38.8 ± 1.7%

## CCCCCCCCCCCCOS(=O)(=O)[O-].[Na+] [SDS, sodium dodecyl sulfate]
[1]
  [%] Residual activity C5: 19.9 ± 0.3%
[2]
  [%] Residual activity C2: 21.6 ± 1.0%
[3]
  [%] Residual activity C3: 2.4 ± 1.9%
[4]
  [%] Residual activity C1: 1.5 ± 0.2%
[5]
  [%] Residual activity C4: 33.2 ± 3.4%

## [Zn+2] [Zn^2+]
[1]
  [%] Residual activity C5: 0.6 ± 0.5%
[2]
  [%] Residual activity C2: 2.3 ± 0.4%
[3]
  [%] Residual activity C3: 21.7 ± 0.1%
[4]
  [%] Residual activity C1: 30.5 ± 0.3%
[5]
  [%] Residual activity C4: 8.1 ± 0.7%
